Earlier results as cited in US20070213270A1, “PEPTIDE YY FORMULATIONS HAVING INCREASED STABILITY AND RESISTANCE TO MICROBIAL AGENTS” (priority 2004, published 2007).
Values belong to the molecule of their own block, whether it stands above or below them.

Tests used:
[1] = aqueous solution at physiologic pH

Molecule: 2-alkyl-4-hydroxyquinolines [pyo compound]
concentration producing ciliostasis / inhibiting ciliary motility (ciliary motility): 50 µg/mL

effectiveness in enzyme inhibition relative to bestatin (aminopeptidases): more than 100 times
effectiveness in enzyme inhibition relative to puromycin (aminopeptidases): more than 1000 times
Molecule: CC(C)CC(N)B(O)O (centres unmarked) [boro-leucine]

Molecule: CCN(CC)/[N+]([O-])=N/O.CCNCC [diethylamine/NO]
rate of NO release [1]: < 3 min

Molecule: NCCN(CCN)/[N+]([O-])=N/O [diethylenetriamine/NO (DETANO), diethylenetriamine/NO]
rate of NO release [1]: approximately 20 hours
